Data on 1 molecule can be found in US8314150B2, “Kinase protein binding inhibitors” (priority 2008, dated 2012).

For one assay, the system named is VEGFR-3 phosphorylation. In words: Phosphorylation of VEGFR-3 in cells. Format: cell-based. The settings on record: not shown. How it is done: (§1) Cell Viability Assay—The Cells were treated with peptides for 24 hours at different peptide concentrations. The 3-(4,5-dimethylthiazol-2-yl)-5-(3-carboxymethoxyphenyl)-2-(4-sulfophenyl)-2H-tetrazolium compound from Promega Viability kit (Madison, Ill.) was added, and the cells were incubated at 37° C. for 1-2 hours. The optical density on 96-plate was analyzed with a microplate reader at 490 nm to determine cell viability. In addition, cells were stained with trypan blue after 24 hours of treatment with Y15 and the percent of cells that stained positive were determined with a hemacytometer. […] Then 2% SDS was added to the dried plated and OD at 590 nm was measured for detecting cell adhesion. […] Protein concentrations were determined using a Bio-Rad Kit. The boiled samples were loaded on Ready SDS-10% PAGE gels (Bio Rad, Inc) and used for Western blot analysis with the protein-specific antibody. […] Detachment Assay—Cells were plated with and without inhibitors for 24 hours, and detached and attached cells were counted in a hemocytometer. We calculated the percent of detachment by dividing the number of detached cells by the total number of cells. The percent of detached cells was calculated in three independent experiments. […] For each experiment 300 cells per treatment were counted. […]

For assay [1], the system named is resistant breast cancer cells with overexpressed Src and activated FAK. The assay is described as follows: Cell viability in resistant breast cancer cells. Particulars: not shown. Format: cell-based. As for the experimental part: as §1
For assay [2], the system named is Y397 phosphorylation of FAK. The assay is described as follows: Western blotting with Y397 antibody, time course in pancreatic tumor cells. Format: cell-based, human. Particulars: 100 μM. How it is done:
as §1

Assay [3] concerns BT474 breast cancer cells. The assay is described as follows: BT474 subcutaneous tumor growth in nude mice. The class given is in vivo. As for the experimental part: Cell Viability Assay—The Cells were treated with peptides for 24 hours at different peptide concentrations. The 3-(4,5-dimethylthiazol-2-yl)-5-(3-carboxymethoxyphenyl)-2-(4-sulfophenyl)-2H-tetrazolium compound from Promega Viability kit (Madison, Ill.) was added, and the cells were incubated at 37° C. for 1-2 hours. The optical density on 96-plate was analyzed with a microplate reader at 490 nm to determine cell viability. In addition, cells were stained with trypan blue after 24 hours of treatment with Y15 and the percent of cells that stained positive were determined with a hemacytometer. Cell adhesion assay—The poly-L-Lysine or Collagen (5 μg/ml) coated 96-well plates were blocked with the blocking buffer (medium with 0.5% BSA) for 1 hour at 37 C. The cells were pre-treated with drugs for 3 hours and plated for adhesion at 4×10^5 cells. Cells were incubated at 37 C for 1 hour, fixed in 3.7% formaldehyde, washed in 0.1% BSA in PBS and stained with crystal violet (5 mg/ml in 2% ethanol) for 10 minutes. Then 2% SDS was added to the dried plated and OD at 590 nm was measured for detecting cell adhesion. […] Protein concentrations were determined using a Bio-Rad Kit. The boiled samples were loaded on Ready SDS-10% PAGE gels (Bio Rad, Inc) and used for Western blot analysis with the protein-specific antibody. […] Detachment Assay—Cells were plated with and without inhibitors for 24 hours, and detached and attached cells were counted in a hemocytometer. We calculated the percent of detachment by dividing the number of detached cells by the total number of cells. The percent of detached cells was calculated in three independent experiments. […] The percent of apoptotic cells was calculated as a ratio of apoptotic detached cells divided by the total number of cells in three independent experiments in several fields with the fluorescent microscope. For each experiment 300 cells per treatment were counted. In vitro Kinase Assay—10 μCi of [γ-^32P]-ATP in a kinase buffer (20 mM HEPES, pH 7.4, 5 mM MgCl2, 5 mM MnCl2, 0.1 mM Na3VO4 with 0.1 μg of purified FAK protein were incubated in a kinase buffer with 10 μCi of [γ-^32P]-ATP. The kinase reaction was performed for 5 minutes at room temperature and stopped by addition of 2× Laemmli buffer. Proteins were separated on a Ready SDS-10% PAGE gel, and the phosphorylated enolase was visualized by autoradiography. KinaseProfiler screening—Kinase specificity screening was performed with KinaseProfiler™ Service (Millipore) available on http://www.millipore.com/drugdiscovery/dd3/KinaseProfiler. […]

The test system of assay [4] is total FAK phosphorylation. The assay is described as follows: FAK immunoprecipitation and Western blotting with P-tyrosine antibody, BT474. Format: cell-based. The settings on record: IP with FAK antibody. How it is done: as §1

The structures appear in SMILES notation.

As to `Cl.Cl.Cl.Cl.Nc1cc(N)c(N)cc1N` [Y15, 1,2,4,5-benzenetetraamine tetrahydrochloride], the “phosphorylation of VEGFR-3” value with VEGFR-3 phosphorylation is “did not inhibit”. For the same molecule, the cell viability result in assay [1] is “effectively blocked cell viability”. Also, the “treatment time enough to completely block Y397-phosphorylation” value in assay [2] is 24 h. For the same molecule, the “Y397 phosphorylation after 6 hours or less” value in assay [2] (6 hours or less) is recorded as “did not significantly decrease Y397 phosphorylation”. Besides, the tumor growth result in assay [3] (30 mg/kg IP, 5 days/week) is reported as “significantly blocked tumor growth”. Besides, the “inhibition of tumor growth” value in assay [3] (30 mg/kg, alone) was above 74%. For the same molecule, in assay [3] (30 mg/kg, day 23, vs untreated), the tumor volume entry is listed as “significantly less than in untreated samples”. Besides, in assay [3] (30 mg/kg, day 23, vs untreated mice), the tumor weight entry is “significantly reduced tumor weight”. In assay [4], the “total FAK phosphorylation (P-tyrosine)” value is on record as “blocked total phosphorylation of FAK”.
